We go through 2 molecules from US20080103198A1, “METHODS FOR TREATMENT OF COCHLEAR AND VESTIBULAR DISORDERS” (priority 2006, published 2008).

Several values for one entry are separate records, joined by “and”; a condition that tells them apart may be missing. Equal values may be shown once.

What all share (type): in vivo, rat
For assay [1], the system named is Li-pilo induced SE. The experiment in a line: Lithium-pilocarpine model (Example 1): Timm staining, mossy fiber sprouting. The protocol:
At 2 months after the onset of spontaneous recurrent seizures, mossy fiber sprouting was examined on rats in the chronic period exposed to the test compound or DZP and in 3 saline-saline rats. Animals were deeply anaesthetized and perfused transcardially with saline followed by 100 ml of 1.15% (w/v) Na2S in 0.1 M phosphate buffer, and 100 ml of 4% (v/v) formaldehyde in 0.1 M phosphate buffer. Brains were removed from skull, post-fixed in 4% formaldehyde during 3-5 h and 40 μm sections were cut on a sliding vibratome and mounted on gelatin-coated slides.
The following day, sections were developed in the dark in a 26° C. solution of 50% (w/v) arabic gum (160 ml), sodium citrate buffer (30 ml), 5.7% (w/v) hydroquinone (80 ml) and 10% (w/v) silver nitrate (2.5 ml) during 40-45 min. The sections were then rinsed with tap water at 40° C. during at least 45 min, rinsed rapidly with distilled water and allowed to dry. They were dehydrated in ethanol and coverslipped.
Mossy fiber sprouting was evaluated according to criteria previously described in dorsal hippocampus (Cavazos et al., 1991, J Neurosci 11:2795-2803), which are follows: 0—no granules between the tips and crest of the DG; 1—sparse granules in the supragranular region in a patchy distribution between the tips and crest of DG; 2—more numerous granules in a continuous distribution between the tips and crest of DG; 3—prominent granules in a continuous pattern between tips and crest, with occasional patches of confluent granules between tips and crest; 4—prominent granules that form a confluent dense laminar band between tips and crest and 5—confluent dense laminar band of granules that extends into the inner molecular layer.

Assay [2] has as its system Li-pilo induced SE. The experiment in a line: Lithium-pilocarpine model (Example 1): quantification of cell densities. Here is the method:
Quantification of cell densities was performed at […] after SE on 8 pilo-DZP, 8 pilo-test10, 7 pilo-test30, 7 pilo-test60, and 6 saline-saline rats. At 14 days after SE, animals were deeply anesthetized with 1.8 g/kg pentobarbital (Dolethal®, Vetoquinol, Lure, France. Brains were then removed and frozen. Serial 20 μm slices were cut in a cryostat, air-dried during several days before thionine staining.
Quantification of cell densities was performed with a 10×10 boxes 1 cm^2 microscopic grid on coronal sections according to the stereotaxic coordinates of the rat brain atlas (Paxinos and Watson, 1986, The Rat brain in Stereotaxic Coordinates, 2nd ed. Academic Press, San Diego). Cell counts were performed twice in a blind manner and were the average of at least 3 values from 2 adjacent sections in each individual animal. Counts involved only cells larger than 10 μm, smaller ones being considered as glial cells.
(§1) For the comparison of the characteristics of SE in pilo-saline and pilo-test compound animals, a non-paired Student's t-test was used. The comparison between the number of rats seizing in both groups was performed by means of a Chi square test. For neuronal damage, statistical analysis between groups was performed using ANOVA followed by a Fisher's test for multiple comparisons using the Statview software (Fisher R A, 1946a, Statistical Methods for Research Workers (10th edition) Oliver & Boyd, Edinburgh; Fisher R A, 1946b, The Design of Experiments (4th edition) Oliver & Boyd, Edinburgh) Behavioral and EEG characteristics of lithium-pitocarpine status epilepticus

The test system of assay [3] is Li-pilo induced SE. As to the kind of experiment: Lithium-pilocarpine model of temporal lobe epilepsy (Example 1): mortality and spontaneous recurrent seizures.
Excerpt: The model induced in rats by pilocarpine associated with lithium (Li-Pilo) reproduces most of the clinical and neurophysiological features of human temporal lobe epilepsy (Turski et al., 1989, Synapse 3:154-171; Cavalheiro, 1995, Ital J Neurol Sci 16:33-37). In adult rats, the systemic administration of pilocarpine leads to status epilepticus (SE). The lethality rate reaches 30-50% during the first days. In the surviving animals, neuronal damage predominates within the hippocampal formation, the piriform and entorhinal cortices, thalamus, amygdaloid complex, neocortex and substantia nigra.
Male Wistar rats weighing 225-250 g, provided by Janvier Breeding Center (Le Genest-St-lste, France) were housed under controlled standard conditions (light/dark cycle, 7.00 a.m.-7.00 p.m. lights on), with food and water available ad libitum. All animal experimentation was performed in accordance with the rules of the European Communities Council Directive of Nov. 24, 1986 (86/609/EEC), and the French Department of Agriculture (License No 67-97). For electrode implantation, rats were anesthetized by an i.p. injection of 2.5 mg/kg diazepam (DZP, Valium, Roche, France) and […] ketamine chlorhydrate (Imalgene 1000, Rhone Merrieux, France). Four single-contact recording electrodes were placed on the skull, over the parietal cortex, two on each side.
All rats received lithium chloride (3 meq/kg, i.p., Sigma, St Louis, Mo., U.S.A.); about 20 h later, animals were placed into plexiglas boxes, in order to record baseline cortical EEG. Methylscopolamine bromide (1 mg/kg, s.c., Sigma) was administered to limit the peripheral effects of the convulsant. SE was induced by injecting pilocarpine hydrochloride (25 mg/kg, s.c., Sigma) 30 min after methyl-scopolamine. The bilateral EEG cortical activity was recorded during the whole duration of SE and behavioral changes were noted.
The effects of increasing doses of the test compound were studied on 3 groups of rats. The animals of the first group received 10 mg/kg of the test compound, i.p., 1 h after the onset of SE (pilo-test10) while the animals of groups 2 and 3 received 30 and 60 mg/kg of the test compound (pilo-test30 and pilo-test60), respectively.
Another group was injected with 2 mg/kg diazepam (DZP, i.m.) at 1 h after the onset of SE which are our standard treatment to improve animals survival after SE (pilo-DZP). The control group received saline instead of pilocarpine and the test compound (saline-saline). The pilo-test compound rats surviving SE were then injected about 10 h after the first test compound injection with a second i.p. injection of the same dose of the test compound and were maintained under a twice daily treatment with the test compound for 6 additional days. Pilo-DZP received a second injection of 1 mg/kg DZP on the day of SE at about 10 h after the first one. Thereafter, Pilo-DZP and saline-saline rats received twice daily an equivalent volume of saline.
The effects of the test compound on the EEG and on the latency to occurrence of SRS were investigated by daily video recording of the animals for 10 h per day and the recording of the electrographic activity twice a week for 8 h.
as §1

Setting [4] is: DZP, compared to saline-saline rats.

As for `CN1C(=O)CN=C(c2ccccc2)c2cc(Cl)ccc21` [DZP, diazepam, reference compound], the “Timm score, upper blade of dentate gyrus (mean)” value in assay [1] (DZP, n=9) is on record as 2.8±0.8. In addition, in assay [2] (setting [4]), the “cell loss, CA3a” value worked out at 54%; the “cell loss, CA3b” value came to 31%; the “cell loss, dorsal entorhinal cortex layer II” value is 9%; the “cell loss, dorsal entorhinal cortex layers III-IV” value came to 15%. In addition, in assay [2] (setting [4]), the “cell loss, hilus of dentate gyrus” value stood at 73%; the “cell loss, hippocampus CA1 pyramidal cell layer” value is 70% and 75%; the “cell loss, lateral thalamic nucleus” value stood at 91%; the “cell loss, mediodorsal thalamic nucleus” value was 56%. Further, in assay [2] (setting [4]), the “cell loss, piriform cortex layer II” value amounted to 53%; the “cell loss, piriform cortex layers III-IV” value was “total”; the “cell loss, ventral entorhinal cortex layers III-IV” value came to 44%; the “damage, ventral entorhinal cortex layer II” value is “totally preserved”. Also, the “mortality during the first 48 h after SE” value in assay [3] (DZP 2 mg/kg i.m. 1 h after SE onset) is given as 23%. Moreover, in assay [3] (DZP 2 mg/kg i.m., n=9), the “latency to SRS” value was 18.2 ± 6.9 days. In addition, the “frequency of stage IV-V SRS” value in assay [3] (DZP, first week) turned out to be 11.3 SRS per week.

As to `NC(=O)OC[C@@H](O)c1ccccc1Cl` [test compound], the “Timm score, upper blade of dentate gyrus (mean)” value in assay [1] (10 mg/kg, n=7) came out at 1.5±0.6; in assay [1] (30 mg/kg, n=10), 2.6±1.0; in assay [1] (60 mg/kg, whole group, n=11) it was 1.5±0.7. Besides, the Timm score in assay [1] (60 mg/kg, subgroup with early SRS occurrence, n=6) came out at 1.8±0.6; in assay [1] (60 mg/kg, subgroup with late occurrence or absence of SRS, n=5), 1.2±0.6. Further, the “more damage compared with pilo-DZP rats, dorsal entorhinal cortex layers III-IV” value in assay [2] (10 mg/kg) came to 28%. In addition, the “more damage compared with pilo-DZP rats, ventral entorhinal cortex layers III-IV” value in assay [2] (10 mg/kg) stood at 35%. The “neuroprotection compared to pilo-DZP rats, ventral entorhinal cortex layers III-IV” value in assay [2] (60 mg/kg) is reported as 31%. Further, the “neuroprotection in CA3b” value in assay [2] (60 mg/kg) is recorded as “significantly neuroprotective”. Further, the “reduction of neuronal damage recorded in pilo-DZP rats, piriform cortex layer II” value in assay [2] (60 mg/kg) is on record as 41%. Also, the “reduction of neuronal damage recorded in pilo-DZP rats, piriform cortex layers III-IV” value in assay [2] (60 mg/kg) was 44%. Further, the “reduction of neuronal damage, lateral thalamic nucleus” value in assay [2] (60 mg/kg) was 65%. The “reduction of neuronal damage, mediodorsal thalamic nucleus” value in assay [2] (60 mg/kg) came to 42%. Moreover, the “neuroprotection in CA3a area” value in assay [2] (10, 30, 60 mg/kg) was “did not afford any protection”. The “cell loss, hilus of dentate gyrus” value in assay [2] (pilo-test compound animals (10-60 mg/kg)) was 69-72%. Besides, the “cell loss, CA1 pyramidal layer” value was determined as 35% in assay [2] (test compound 30 mg/kg) and 16% in assay [2] (test compound 60 mg/kg). The “latency to SRS” value in assay [3] (10 mg/kg i.p., 7-day treatment, n=7) turned out to be 15.4 ± 5.1 days; in assay [3] (30 mg/kg i.p., 7-day treatment, n=10), 18.9 ± 9.0 days; in assay [3] (60 mg/kg, subgroup with latency similar to other groups, n=7) it was 17.6 ± 8.7 days. The “frequency of stage III SRS” value in assay [3] (10 mg/kg, weeks 3 and 4) was “significantly increased over pilo-DZP values”. The “frequency of stage IV-V SRS” value in assay [3] (60 mg/kg group with early SRS onset, weeks 2-4) is given as 0.6-0.9 seizure per week; in assay [3] (10, 30 and 60 mg/kg (early SRS onset) groups, first week), 2.3-6.1 SRS per week. Besides, the “delay without becoming epileptic post-SE” value in assay [3] (60 mg/kg, one rat) is greater than 9 months. For the same molecule, the “mean delay to epilepsy relative to the other groups of animals” value in assay [3] (60 mg/kg, subgroup of animals) is given as “about 9 fold”. Besides, in assay [3] (60 mg/kg, subgroup with much longer delay, n=4), the “latency to SRS (mean)” value came to 149.8 ± 36.0 days. The “rats with delayed occurrence of spontaneous seizures” value in assay [3] (60 mg/kg, 4 out of 11) turned out to be 36%. The results for the “mortality during the first 48 h after SE” value in assay [3] (test compound 10 mg/kg i.p. 1 h after SE onset), in assay [3] (test compound 30 mg/kg i.p. 1 h after SE onset) and in assay [3] (test compound 60 mg/kg i.p. 1 h after SE onset) were 26%, 20% and 4%, respectively.
